The data set has as its system CCRIS mutagenicity, Ames/micronucleus/aberration tests. The data set can be described thus: CCRIS mutagenicity studies.
Setting [1] is: Test System: AMES SALMONELLA TYPHIMURIUM, Strain/Indicator: TA98, Metabolic Activation: NONE, Method: STANDARD PLATE.
The mark [2] stands for this setting: Test System: AMES SALMONELLA TYPHIMURIUM, Strain/Indicator: TA98, Metabolic Activation: RAT, LIVER, S-9, AROCLOR 1254, Method: STANDARD PLATE.
[3] abbreviates: Test System: AMES SALMONELLA TYPHIMURIUM, Strain/Indicator: TA100, Metabolic Activation: NONE, Method: STANDARD PLATE.
[4] abbreviates: Test System: AMES SALMONELLA TYPHIMURIUM, Strain/Indicator: TA100, Metabolic Activation: RAT, LIVER, S-9, AROCLOR 1254, Method: STANDARD PLATE.
Where [5] appears, read: Test System: AMES SALMONELLA TYPHIMURIUM, Strain/Indicator: TA1535, Metabolic Activation: NONE, Method: STANDARD PLATE.
Setting [6] is: Test System: AMES SALMONELLA TYPHIMURIUM, Strain/Indicator: TA1535, Metabolic Activation: RAT, LIVER, S-9, AROCLOR 1254, Method: STANDARD PLATE.
Where [7] appears, read: Test System: AMES SALMONELLA TYPHIMURIUM, Strain/Indicator: TA1538, Metabolic Activation: NONE, Method: STANDARD PLATE.
Where [8] appears, read: Test System: AMES SALMONELLA TYPHIMURIUM, Strain/Indicator: TA1538, Metabolic Activation: RAT, LIVER, S-9, AROCLOR 1254, Method: STANDARD PLATE.

Structures are written as SMILES. The source made the active and inactive calls. The rule behind the calls is not given here.

On to `Nc1ccc(O)c([N+](=O)[O-])c1`, for which the mutagenic call runs as follows: (Test System: AMES SALMONELLA TYPHIMURIUM, Strain/Indicator: TA97, Metabolic Activation: HAMSTER, LIVER, S-9, AROCLOR 1254 (10%), Method: PREINCUBATION) “inactive; negative”; (Test System: AMES SALMONELLA TYPHIMURIUM, Strain/Indicator: TA97, Metabolic Activation: NONE, Method: PREINCUBATION) “inactive; negative”; (Test System: AMES SALMONELLA TYPHIMURIUM, Strain/Indicator: TA97, Metabolic Activation: RAT, LIVER, S-9, AROCLOR 1254 (10%), Method: PREINCUBATION) “inactive; negative”; (Test System: AMES SALMONELLA TYPHIMURIUM, Strain/Indicator: TA98, Metabolic Activation: HAMSTER, LIVER, S-9, AROCLOR 1254 (10%), Method: PREINCUBATION) “inactive; negative”; (Test System: AMES SALMONELLA TYPHIMURIUM, Strain/Indicator: TA98, Metabolic Activation: NONE, Method: PREINCUBATION) “active; positive”; under setting [1], “inactive; negative”. For the same compound, the mutagenic call (Test System: AMES SALMONELLA TYPHIMURIUM, Strain/Indicator: TA98, Metabolic Activation: RAT, LIVER, S-9, AROCLOR 1254 (10%), Method: PREINCUBATION) was “inactive; negative”; the mutagenic call under setting [2] is “inactive; negative”; the mutagenic call (Test System: AMES SALMONELLA TYPHIMURIUM, Strain/Indicator: TA100, Metabolic Activation: HAMSTER, LIVER, S-9, AROCLOR 1254 (10%), Method: PREINCUBATION) is “inactive; negative”; the mutagenic call (Test System: AMES SALMONELLA TYPHIMURIUM, Strain/Indicator: TA100, Metabolic Activation: NONE, Method: PREINCUBATION) is “inactive; negative”; the mutagenic call under setting [3] is “inactive; negative”; the mutagenic call (Test System: AMES SALMONELLA TYPHIMURIUM, Strain/Indicator: TA100, Metabolic Activation: RAT, LIVER, S-9, AROCLOR 1254 (10%), Method: PREINCUBATION) is “inactive; negative”. Also, the mutagenic call reads like this: under setting [4], “inactive; negative”; (Test System: AMES SALMONELLA TYPHIMURIUM, Strain/Indicator: TA1535, Metabolic Activation: HAMSTER, LIVER, S-9, AROCLOR 1254 (10%), Method: PREINCUBATION) “inactive; negative”; (Test System: AMES SALMONELLA TYPHIMURIUM, Strain/Indicator: TA1535, Metabolic Activation: NONE, Method: PREINCUBATION) “inactive; negative”; under setting [5], “inactive; negative”; (Test System: AMES SALMONELLA TYPHIMURIUM, Strain/Indicator: TA1535, Metabolic Activation: RAT, LIVER, S-9, AROCLOR 1254 (10%), Method: PREINCUBATION) “inactive; negative”; under setting [6], “inactive; negative”. The mutagenic call by setting is: (Test System: AMES SALMONELLA TYPHIMURIUM, Strain/Indicator: TA1537, Metabolic Activation: NONE, Method: STANDARD PLATE) “inactive; negative”; (Test System: AMES SALMONELLA TYPHIMURIUM, Strain/Indicator: TA1537, Metabolic Activation: RAT, LIVER, S-9, AROCLOR 1254, Method: STANDARD PLATE) “inactive; negative”; under setting [7], “inactive; negative”; under setting [8], “inactive; negative”; (Test System: E. COLI, Strain/Indicator: WP2 UVRA, Metabolic Activation: HAMSTER, LIVER, S-9, AROCLOR 1254, Method: STANDARD PLATE) “inactive; negative”; (Test System: E. COLI, Strain/Indicator: WP2 UVRA, Metabolic Activation: HAMSTER, LIVER, S-9, Method: STANDARD PLATE) “inactive; negative”. The mutagenic call runs as follows: (Test System: E. COLI, Strain/Indicator: WP2 UVRA, Metabolic Activation: MOUSE, LIVER, S-9, AROCLOR 1254, Method: STANDARD PLATE) “inactive; negative”; (Test System: E. COLI, Strain/Indicator: WP2 UVRA, Metabolic Activation: MOUSE, LIVER, S-9, Method: STANDARD PLATE) “inactive; negative”; (Test System: E. COLI, Strain/Indicator: WP2 UVRA, Metabolic Activation: NONE, Method: STANDARD PLATE) “inactive; negative”; (Test System: E. COLI, Strain/Indicator: WP2 UVRA, Metabolic Activation: RAT, LIVER, S-9, AROCLOR 1254, Method: STANDARD PLATE) “inactive; negative”; (Test System: E. COLI, Strain/Indicator: WP2 UVRA, Metabolic Activation: RAT, LIVER, S-9, Method: STANDARD PLATE) “inactive; negative”; (Test System: MOUSE LYMPHOMA, Strain/Indicator: L5178Y (TK+/TK-), Metabolic Activation: NONE, Method: SUSPENSION/PLATE) “active; positive”. Under “Test System: MOUSE LYMPHOMA, Strain/Indicator: L5178Y (TK+/TK-), Metabolic Activation: RAT, LIVER, S-9, AROCLOR 1254, Method: SUSPENSION/PLATE”, the mutagenic call was “active; positive”.

In the case of `CS(=O)(=O)OC[C@H](O)[C@@H](O)COS(C)(=O)=O`, the mutagenic call under setting [3] is “active; positive”; the mutagenic call under setting [5] is “active; positive”; the mutagenic call (Test System: AMES SALMONELLA TYPHIMURIUM, Strain/Indicator: TA7004, Metabolic Activation: NONE, Method: STANDARD PLATE) is “active; positive”; the mutagenic call (Test System: AMES SALMONELLA TYPHIMURIUM, Strain/Indicator: TA7005, Metabolic Activation: NONE, Method: STANDARD PLATE) is “inactive; negative”; the mutagenic call (Test System: CHINESE HAMSTER OVARY, Strain/Indicator: AS52/6-THIOGUANINE, Metabolic Activation: NONE) is “active; positive”.

Turning to `O=C(O)CC[C@H](NC(=O)COc1cc(Cl)c(Cl)cc1Cl)C(=O)O`, the mutagenic call by setting is: (Test System: AMES SALMONELLA TYPHIMURIUM, Strain/Indicator: TA97, Metabolic Activation: NONE, Method: STANDARD PLATE) “inactive; negative”; (Test System: AMES SALMONELLA TYPHIMURIUM, Strain/Indicator: TA97, Metabolic Activation: RAT, LIVER, S-9, AROCLOR 1254, Method: STANDARD PLATE) “inactive; negative”; under setting [1], “inactive; negative”; under setting [2], “inactive; negative”; under setting [3], “inactive; negative”; under setting [4], “inactive; negative”. For the same compound, the mutagenic call under setting [5] is “inactive; negative”, the mutagenic call under setting [6] was “inactive; negative”, the mutagenic call under setting [7] was “inactive; negative” and the mutagenic call under setting [8] was “inactive; negative”.

These data come from PubChem BioAssay AID1259407 (Chemical Carcinogenesis Research Information System (CCRIS), 2018).
